This is an account of results in patent US9204653B2, “5-fluoro pyrimidine derivatives” (DOW AGROSCIENCES LLC, priority 2008, dated 2015).

For experiment [1], the system named is Venturia inaequalis; Bayer Code VENTIN. The experiment is described as follows: Apple scab. Format: in vivo. The settings on record: 24 h, % disease control rating, one day protectant; for pest or weed control at 25 ppm: read-out: VENTIN 1 DP 25 ppm; for pest or weed control at 75 ppm: read-out: VENTIN 1 DP 75 ppm.
The subject of experiment [2] is Mycosphaerella fijiensis; BAYER Code MYCOFI. The experiment is described as follows: Black Sigatoka disease of banana. It counts as in vivo, Mycosphaerella fijiensis on field grown banana plants. The conditions noted are these: % disease control rating, banana leaves, natural inoculum. The procedure: 5. Evaluation of Fungicidal Activity: Black Sigatoka Disease of Banana (Mycosphaerella fijiensis; BAYER Code MYCOFI): […] The leaves were subsequently allowed to become infected by natural inoculum, and were visually assessed for percent disease control ˜40-45 days later. The following tables present the activity of typical compounds of the present disclosure when evaluated in these experiments. The effectiveness of the test compounds in controlling disease was determined by assessing the severity of disease on treated plants, then converting the severity to percent control based on the level of disease on untreated, inoculated plants. In each case of Tables I-V the rating scale is as follows: […]

Experiment [3] has as its system Cercospora beticola; Bayer Code CERCBE. The experiment is described as follows: Leaf spot of sugar beets. It counts as in vivo, Cercospora beticola on sugar beets (variety HH-88). The settings on record: 24 h, % disease control rating, one day protectant; for pest or weed control at 25 ppm: read-out: CERCBE 1 DP 25 ppm; for pest or weed control at 75 ppm: read-out: CERCBE 1 DP 75 ppm.

Experiment [4] relates to Mycosphaerella graminicola; Anamorph: Septoria tritici; Bayer Code SEPTTR. The experiment is described as follows: Leaf blotch of wheat, foliar fungicide treatment, one day protectant (1DP) or three day curative (3DC). Format: in vivo, Septoria tritici on wheat plants (variety Yuma). The conditions noted are these: Zymoseptoria tritici; for pest or weed control at 50 ppm / pest or weed control at 200 ppm: % disease control rating, one day protectant.

The test system is the same in experiment [5]. The experiment is described as follows: Fungicidal activity as a seed treatment: leaf blotch of wheat. Format: in vivo, Septoria tritici on wheat variety Yuma. The settings on record: for % Control (SEPTTR, seed treatment): 10% SC formulation; for Pot 1 to Pot 8 values (SEPTTR disease severity on treated plants): single pots, 8 replicates. The text has this:
6. Evaluation of Fungicidal Activity as a Seed Treatment: Leaf Blotch of Wheat (Mycosphaerella graminicola; Anamorph: Septoria tritici; Bayer Code […]) […] Seeds (10 seeds/pot) were planted in 1 inch pot containing 50% mineral soil/50% soil-less Metro mix. 8-day old seedlings were inoculated with an aqueous spore suspension of Septoria tritici, and 8 pots of plants were inoculated for each fungicide rate. After inoculation, plants were kept in 100% relative humidity (one day in a dark dew chamber followed by two days in a lighted mist room) to allow establishment of infection. The plants were then transferred to a greenhouse for disease to develop. When infection levels on untreated plants reached 95 to 100%, disease severities on treated plants were assessed. […] The following tables present the activity of typical compounds of the present disclosure when evaluated in these experiments. The effectiveness of the test compounds in controlling disease was determined by assessing the severity of disease on treated plants, then converting the severity to percent control based on the level of disease on untreated, inoculated plants. In each case of Tables I-V the rating scale is as follows: […]

[6] abbreviates: 24 h, one day protectant (1DP), percent disease control rating, read-out: SETTTR 1DP 25 ppm.
Where [7] appears, read: 24 h, one day protectant (1DP), percent disease control rating, read-out: SEPTTR 1DP 100 ppm.
Setting [8] is: 72 h, three day curative (3DC), percent disease control rating, read-out: SEPTTR 3DC 25 ppm.
Setting [9] is: 72 h, three day curative (3DC), percent disease control rating, read-out: SEPTTR 3DC 100 ppm.

Several values for one entry are separate records, joined by “and”; a condition that tells them apart may be missing. Identical values can stand only once. Like-named read-outs stand apart in the source and are kept apart here.

`Nc1nc(OCc2ccc(F)cc2)ncc1F` [Compound 1, 5-Fluoro-2-(4-fluorobenzyloxy)pyrimidin-4-amine]: the pest or weed control at 25 ppm in experiment [1] lay in the range of 76 to 100%; in experiment [3] it was 26 to 50%; in experiment [4] (setting [6]), 76 to 100%; in experiment [4] (setting [8]), 76 to 100%. In addition, the pest or weed control at 75 ppm in experiment [1] is 76 to 100%; in experiment [3] it was 26 to 50%. Also, the “MYCOFI 1 DP 50 ppm” value in experiment [2] (50 ppm) is “C (26-50)”. Moreover, the “MYCOFI 1 DP 200 ppm” value in experiment [2] (200 ppm) is recorded as “B (51-75)”. The pest or weed control at 100 ppm in experiment [4] (setting [7]) and in experiment [4] (setting [9]) was 76 to 100% in each case.

`Cc1ccc(COc2ncc(F)c(N)n2)cc1` [Compound 15]: the pest or weed control at 25 ppm in experiment [1], in experiment [4] (setting [6]) and in experiment [4] (setting [8]) was 76 to 100% throughout. Also, the pest or weed control at 75 ppm in experiment [1] was 76 to 100%. For the same molecule, the “control of SEPTTR via seed treatment (in words)” value in experiment [5] (lowest test rate of 1.48 g ai/100 kg seeds) is “nearly complete control”. The “% Control (SEPTTR, seed treatment)” value in experiment [5] (rate 1.48 g/100 kg seeds), in experiment [5] (rate 4.44 g/100 kg seeds), in experiment [5] (rate 13.3 g/100 kg seeds), in experiment [5] (rate 40 g/100 kg seeds) and in experiment [5] (rate 120 g/100 kg seeds) was “A (76-100)” in each case. Further, the “Pot 1 to Pot 8 values (SEPTTR disease severity on treated plants)” value in experiment [5] (rate 1.48 g/100 kg seeds) is 3% (3×) and 1% (2×) and 0% (3×); in experiment [5] (rate 4.44 g/100 kg seeds), 0% (5×) and 1% (3×); in experiment [5] (rate 13.3 g/100 kg seeds), 0% (4×) and 1% (4×); in experiment [5] (rate 40 g/100 kg seeds) it was 0% (5×) and 1% (3×); in experiment [5] (rate 120 g/100 kg seeds) it was 0%. The pest or weed control at 100 ppm in experiment [4] (setting [7]) and in experiment [4] (setting [9]) was 76 to 100% throughout.

In the case of `Cc1c(COc2ncc(F)c(N)n2)cnn1C` [Compound 800], the pest or weed control at 25 ppm is 76 to 100% in experiment [1]; 76 to 100% in experiment [3]; 76 to 100% in experiment [4] (24 h, one day protectant (1DP), rating of percent disease control, read-out: SETTTR 1DP 25 ppm); 76 to 100% in experiment [4] (72 h, three day curative (3DC), rating of percent disease control, read-out: SEPTTR 3DC 25 ppm). The pest or weed control at 75 ppm in experiment [1] and in experiment [3] was 76 to 100% each time. For the same molecule, the pest or weed control at 100 ppm lay within 76 to 100% in experiment [4] (24 h, one day protectant (1DP), rating of percent disease control, read-out: SEPTTR 1DP 100 ppm) and 76 to 100% in experiment [4] (72 h, three day curative (3DC), rating of percent disease control, read-out: SEPTTR 3DC 100 ppm).

Turning to `Fc1cnc(OCc2cccs2)nc1NCc1ccc2c(c1)OCO2` [Compound 804], in experiment [1], the pest or weed control at 25 ppm is 0 to 25% and the pest or weed control at 75 ppm is 0 to 25%. In addition, in experiment [3], the pest or weed control at 25 ppm fell in the range of 0 to 25% and the pest or weed control at 75 ppm was 0 to 25%. Also, in experiment [4] (24 h), the pest or weed control at 50 ppm lay within 26 to 50% and the pest or weed control at 200 ppm lay in the range of 51 to 75%.

For `Fc1cnc(OCc2cccs2)nc1N1CCOCC1` [Compound 845], in experiment [1], the pest or weed control at 25 ppm was in the range of 26 to 50% and the pest or weed control at 75 ppm fell in the range of 26 to 50%. In experiment [3], the pest or weed control at 25 ppm was 0 to 25% and the pest or weed control at 75 ppm was in the range of 0 to 25%. In addition, in experiment [4] (24 h), the pest or weed control at 50 ppm lay within 76 to 100% and the pest or weed control at 200 ppm is 76 to 100%.

On to `Cc1cnc(CNc2nc(OCc3ccco3)ncc2F)cn1` [Compound 849], for which, in experiment [1], the pest or weed control at 25 ppm is 76 to 100% and the pest or weed control at 75 ppm fell in the range of 51 to 75%. Besides, in experiment [3], the pest or weed control at 25 ppm lay within 26 to 50% and the pest or weed control at 75 ppm was in the range of 26 to 50%. In experiment [4] (24 h), this molecule yielded a pest or weed control at 50 ppm of 76 to 100% and a pest or weed control at 200 ppm of 76 to 100%.

For `Fc1cnc(OC2CCCCC2)nc1NCc1ccc(Cl)nc1` [Compound 858], in experiment [1], the pest or weed control at 25 ppm fell in the range of 26 to 50% and the pest or weed control at 75 ppm was in the range of 0 to 25%. In experiment [3], the pest or weed control at 25 ppm lay within 26 to 50% and the pest or weed control at 75 ppm was 26 to 50%. In experiment [4] (24 h), this molecule yielded a pest or weed control at 50 ppm of 0 to 25% and a pest or weed control at 200 ppm of 26 to 50%.

For `Fc1cnc(OCc2ccc(OC(F)(F)F)cc2)nc1NCc1cccs1` [Compound 860], in experiment [1], the pest or weed control at 25 ppm lay in the range of 26 to 50% and the pest or weed control at 75 ppm was 51 to 75%. Moreover, in experiment [3], the pest or weed control at 25 ppm fell in the range of 0 to 25% and the pest or weed control at 75 ppm lay in the range of 26 to 50%. The same molecule yielded a pest or weed control at 200 ppm in experiment [4] (24 h) of 76 to 100%.

Take `Fc1ccccc1CNc1nc(OCC(F)(F)F)ncc1F` [Compound 894]: in experiment [1], the pest or weed control at 25 ppm is 0 to 25% and the pest or weed control at 75 ppm was in the range of 26 to 50%. Besides, in experiment [3], the pest or weed control at 25 ppm lay in the range of 0 to 25% and the pest or weed control at 75 ppm was in the range of 0 to 25%. In experiment [4] (24 h), the pest or weed control at 50 ppm is 0 to 25% and the pest or weed control at 200 ppm lay within 0 to 25%.

For the molecule `Nc1nc(OCCn2cncn2)ncc1F` [Compound 933], in experiment [1], the pest or weed control at 25 ppm lay within 0 to 25% and the pest or weed control at 75 ppm fell in the range of 26 to 50%. In experiment [3], the pest or weed control at 25 ppm lay within 26 to 50% and the pest or weed control at 75 ppm was in the range of 26 to 50%. In experiment [4] (24 h), this molecule came in with a pest or weed control at 50 ppm of 26 to 50% and a pest or weed control at 200 ppm of 51 to 75%.

With `Fc1cnc(OC2CCCCC2)nc1N1CCOCC1` [Compound 941], in experiment [1], the pest or weed control at 25 ppm was in the range of 51 to 75% and the pest or weed control at 75 ppm was 26 to 50%. Also, in experiment [3], the pest or weed control at 25 ppm is 0 to 25% and the pest or weed control at 75 ppm is 0 to 25%. In experiment [4] (24 h), this molecule displayed a pest or weed control at 50 ppm of 0 to 25% and a pest or weed control at 200 ppm of 0 to 25%.

Consider `Fc1cnc(OCc2ccccn2)nc1NC1CC1` [Compound 952], for which the pest or weed control at 25 ppm in experiment [1] and in experiment [3] was 0 to 25% each time. Also, the pest or weed control at 75 ppm in experiment [1] and in experiment [3] was 0 to 25% in each case. The pest or weed control at 200 ppm in experiment [4] (24 h) lay within 26 to 50%.
